Measured values taken from patent publication EP0801949A1, “Hypoglycemic quinone derivative” (Eisai Co., Ltd., priority 1996, dated 1997).

Tests used:
Type in all cases: in vivo
KK-Ay/Ta mice [1] = test: Blood sugar level in type-II diabetes model mice, oral dosing twice daily for 14 days; conditions: for Blood sugar level: male KK-Ay/Ta mice, average ± standard error, N=6
Excerpt: (§1) Use was made of 22-week old male KK-Ay/Ta mice (type-II diabetes model mice available from Clea Japan Inc.). Restricted feeding was effected such that the animals were starved from 9:00 a.m. to 5:00 p.m. daily through the experimental period.
(§2) (E)-3-[2-(5,6-Dimethoxy-3-methyl-1,4-benzoquinonyl)]-2-nonylpropenoic acid as a representative example of the compounds of the present invention was suspended in 0.5% methylcellulose (MC) and orally administered twice 9:00 a.m. and 5:00 p.m. daily for 14 days in accordance with the following schedule.
(§3) The 0.5% methylcellulose (MC) was administered to a control group in the same manner as above.
(§4) All blood specimens were collected from the cardal veins, and blood sugar and blood insulin levels were measured on the day preceding the administration (day 0) and 3 days (day 3), 7 days (day 7), 10 days (day 10) and 14 days (day 14) after the administration. Hemoglobin AIc (HbAIc) was measured on day 0 and day 14. The measurements of blood sugar level, blood insulin level and HbAIc were conducted by the use of Fuji Dry-Chem System 5500 (manufactured by Fuji Medical Systems Co., Ltd.), insulin measuring kit (EIA sandwich method, manufactured by Morinaga Seikagaku Kenkyusho) and DCA 2000 System (manufactured by Bayer Diagnosics), respectively. The results are expressed by the average ± standard error with respect to each group. The significant difference test as compared with the control group was performed by the Student t-test.

KK-Ay/Ta mice [2] = test: Hemoglobin AIc (HbAIc) in type-II diabetes model mice, oral dosing twice daily for 14 days; conditions: 300 mg/Kg/day p.o. for 14 days, KK-Ay/Ta mice (Table 3)
Excerpt: as §1, §2, §3
as §4, with “The significant difference test as compared with the control group was performed by the Student t-test.” left out

SD rat = test: Single administration toxicity test in rat (lethal dose); conditions: observed for 14 days
Excerpt: (§5) (E)-3-[2-(5,6-Dimethoxy-3-methyl-1,4-benzoquinonyl)]-2-nonylpropenoic acid was used as a test compound.

beagle = test: Single administration toxicity test in beagle (lethal dose); conditions: p.o., observed for 21 days
Excerpt: as §5

Q: With `CCCCCCCCC/C(=C\C1=C(C)C(=O)C(OC)=C(OC)C1=O)C(=O)O` [invention compd., (E)-3-[2-(5,6-Dimethoxy-3-methyl-1,4-benzoquinonyl)]-2-nonylpropenoic acid] as the compound, how does the “hypoglycemic effect (in words)” value (KK-Ay/Ta mice [1]; 300 mg/Kg/day p.o. for 14 days, KK-Ay/Ta mice, compared with the control group (Table 2, Fig. 1)) read?
A: excellent hypoglycemic effect

Q: What about the Blood sugar level (KK-Ay/Ta mice [1]; Day 0 (day preceding the administration, baseline)) of the same compound?
A: 465.7 ± 21.51 mg/dL

Q: What about the Blood sugar level (KK-Ay/Ta mice [1]; Day 0 (day preceding the administration, baseline), listed as the compound of the present invention) of the same compound?
A: 465.7 ± 21.51 mg/dL

Q: And the Blood sugar level (KK-Ay/Ta mice [1]; Day 3, 300 mg/Kg/day p.o. (100 a.m. + 200 p.m.), 300 mg/kg/day)?
A: 380.8 ± 52.42 mg/dL

Q: And the Blood sugar level (KK-Ay/Ta mice [1]; Day 3, 300 mg/Kg/day p.o. (100 a.m. + 200 p.m.), listed as the compound of the present invention, 300 mg/kg/day)?
A: 380.8 ± 52.42 mg/dL

Q: What about the Blood sugar level (KK-Ay/Ta mice [1]; Day 7, 300 mg/Kg/day p.o. (100 a.m. + 200 p.m.), 300 mg/kg/day) of the same compound?
A: 319.8 ± 27.49 mg/dL

Q: What about the Blood sugar level (KK-Ay/Ta mice [1]; Day 7, 300 mg/Kg/day p.o. (100 a.m. + 200 p.m.), listed as the compound of the present invention, 300 mg/kg/day) of the same compound?
A: 319.8 ± 27.49 mg/dL

Q: What about the Blood sugar level (KK-Ay/Ta mice [1]; Day 10, 300 mg/Kg/day p.o. (100 a.m. + 200 p.m.), 300 mg/kg/day) of the same compound?
A: 334.3 ± 33.75 mg/dL

Q: And the Blood sugar level (KK-Ay/Ta mice [1]; Day 10, 300 mg/Kg/day p.o. (100 a.m. + 200 p.m.), listed as the compound of the present invention, 300 mg/kg/day)?
A: 334.3 ± 33.75 mg/dL

Q: What about the Blood sugar level (KK-Ay/Ta mice [1]; Day 14, 300 mg/Kg/day p.o. (100 a.m. + 200 p.m.), 300 mg/kg/day) of the same compound?
A: 280.2 ± 37.31 mg/dL

Q: And the Blood sugar level (KK-Ay/Ta mice [1]; Day 14, 300 mg/Kg/day p.o. (100 a.m. + 200 p.m.), listed as the compound of the present invention, 300 mg/kg/day)?
A: 280.2 ± 37.31 mg/dL

Q: What about the “HbAIc change as compared with the control group (in words)” value (KK-Ay/Ta mice [2]) of the same compound?
A: decrease trend

Q: And the Lethal dose (SD rat; i.v.)?
A: >60 mg/kg

Q: And the Lethal dose (SD rat; p.o.)?
A: 2000 mg/kg

Q: What about the Lethal dose (beagle) of the same compound?
A: >400 mg/kg
